Source: patent US6323230A, “Use of nitrogen heterocyclic aromatic derivatives in the topical treatment of the epithelial tissues diseases” (Geange Ltd., priority 1997, dated 2001)

Tests used:
[1] = test system: ulcerous cholitis (colon); test: Animal models of ulcerous cholitis; type: in vivo, Wistar rats; settings: oral, daily, 1 mg/kg, in sesame oil 2 mg/mL
Experimental: Dealing with the activity of the compounds object of the present invention, on the inflammatory diseases of the low intestine, some compounds, namely V, VI, X and XI, were tested in animal models of ulcerous cholitis (Wallace J. L. et al., Eur. J. Pharmacol. 257, 249 (1994); Renter B. K. et al. J. Clin. Invest. 98, 2076-2085 (1996).
In particular, compound VI, when administered daily by oral route to Wistar rats, dissolved in sesame oil at the concentration of 2 mg/mL , at the dose of 1 mg/kg, did show a good activity in favouring colon ulcers repair, in re-establishing the normal thickness of the intestinal wall and in decreasing the granulocytes infiltration proper of an inflammatory condition.

[2] = Percutaneous absorption / systemically bioavailable dose from cream; type: in vivo; settings: cream 0.05-0.1%

SMILES | decreasing the granulocytes infiltration [1] | favouring colon ulcers repair [1] | re-establishing the normal thickness of the intestinal wall [1] | maximum systemically bioavailable dose ([2]; about 50 g, whole body surface, 25-50 mg) [mg/kg] | Fa ([2]; in vivo, topical or ocular, of the applied dose) [%]
COc1cccc(-c2nc(-c3ccccc3CO)n[nH]2)c1 [VI] | good activity | good activity | good activity |  | 
CCc1ccccc1-c1n[nH]c(-c2cccc(OC)c2)n1 [Compound XIII] |  |  |  | 0.05 to 0.1 | ~10
